The target in the assay is URAT1 (Homo sapiens (Human), UniProt Q96S37). Kind of assay: Uptake of [14C] uric acid using HEK-URAT1. The class given is cell-based. The conditions noted are these: for remaining activity at 10 µM: 2 min, [14C] uric acid uptake into URAT1 stably expressed HEK293 cells, 10 μM test compound, 5 μM uric acid, 2 minutes, 37° C., uptake without test compound = 100%, read-out: % control (10 μM); for IC50: inhibition of [14C] uric acid uptake into URAT1 stably expressed HEK293 cells. As for the experimental part: More specifically, the test is performed by culturing URAT1 stably expressed HEK293 cells (HEK-URAT1) or HEK293 cells transfected with empty vector (HEK-mock) in a DMEM culture medium in an incubator. Subsequently, 1×10^5 cells are respectively seeded in 24-well culture plate coated with poly D-lysine and the uptake test is started after the culturing.
Chain of URAT1 (Q96S37 whole entry): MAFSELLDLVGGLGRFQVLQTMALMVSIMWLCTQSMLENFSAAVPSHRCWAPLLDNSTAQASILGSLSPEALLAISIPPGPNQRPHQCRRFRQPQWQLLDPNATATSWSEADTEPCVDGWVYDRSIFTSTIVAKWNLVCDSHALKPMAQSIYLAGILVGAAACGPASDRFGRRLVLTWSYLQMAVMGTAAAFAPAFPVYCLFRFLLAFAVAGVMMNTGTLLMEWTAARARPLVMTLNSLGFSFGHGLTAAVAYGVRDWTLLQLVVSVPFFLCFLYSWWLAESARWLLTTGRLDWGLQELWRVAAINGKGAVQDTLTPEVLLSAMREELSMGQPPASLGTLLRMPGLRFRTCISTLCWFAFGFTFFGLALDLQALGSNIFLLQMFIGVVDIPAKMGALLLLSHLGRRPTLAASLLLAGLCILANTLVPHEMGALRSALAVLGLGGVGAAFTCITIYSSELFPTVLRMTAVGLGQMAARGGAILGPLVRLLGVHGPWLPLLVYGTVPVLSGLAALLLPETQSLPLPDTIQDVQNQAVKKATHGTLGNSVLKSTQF
The cells are washed with a solution for a test warmed to 37° C. and equilibrated. After a buffer solution is removed from the cells, 0.5 mL of an uptake solution containing 5 μM [^14C] uric acid with or without a test compound is respectively added and the cells are incubated. The cell uptake is stopped by adding a Hanks buffer solution and the cells are washed. The cells are lysed with 0.1 N sodium hydroxide and the radioactivity is measured using LSC6100 (Aloka Co., Ltd. Tokyo). Each uptake into HEK-URAT1 is acquired by subtracting uptake into HEK-mock cells from the value of HEK-URAT1, converting the result to per mg protein of cells, and setting the values from the uptake without the test compound as 100%.
URAT1 stably expressed HEK293 cells (HEK-URAT1) or HEK293 cells transfected with empty vector (HEK-mock) were cultured in DMEM culture medium supplemented with 10% fetal bovine serum in an incubator under conditions of 5% carbon dioxide at 37° C. Subsequently, 1×10^5 cells were respectively seeded in 24-well culture plate coated with poly D-lysine and the uptake test was started after the culturing for 3 days.
The uptake experiment of uric acid was performed at 37° C. […] After a buffer solution was removed from the cells, 0.5 mL of an uptake solution containing 5 μM [^14C] uric acid with or without a test compound was respectively added and the cells were incubated for 2 minutes. The cell uptake was stopped by adding an ice-cold Hanks buffer solution without chloride ions and the cells were washed 3 times. The cells were lysed with 0.1 N sodium hydroxide and the radioactivity was measured using LSC6100 (Aloka Co., Ltd. Tokyo). Each uptake into HEK-URAT1 was acquired by subtracting uptake into HEK-mock cells from the value of HEK-URAT1, converting the result to per mg protein of cells, and setting the value from uptake without the test compound as 100%. The uptake in each condition was performed in triplicate and each value was represented by average±standard deviation.
The URAT1 inhibitory action was measured according to the same method as in Example 118.

Molecules are shown by their SMILES. Where only a bound is given, the exact number is not on record here.

As to `CC(C)(Oc1ccc2cnsc2c1-c1ccc(C#N)cc1)C(=O)O` [Example 26, 2-[[7-(4-Cyanophenyl)benzo[d]isothiazol-6-yl]oxy]-2-methylpropanoic acid], the remaining activity at 10 µM amounted to 11.6%.

For the compound `CC(C)(Oc1c(-c2ccc(C#N)cc2)ccc2ncsc12)C(=O)O` [Example 37, 2-[[6-(4-Cyanophenyl)benzo[d]thiazol-7-yl]oxy]-2-methylpropanoic acid], the remaining activity at 10 µM was 78.6%.

With `C/C(=C\C(=O)O)Sc1ccc2ccccc2c1-c1ccc(C#N)cc1` [Example 116, (E)-3-[[1-(4-cyanophenyl)naphthalen-2-yl]thio]-2-butenoic acid], the remaining activity at 10 µM was 1.3% and the half-inhibitory concentration (IC50) stood at 25 nM.

For `Cc1cc(-c2c(SC(C)(C)C(=O)O)ccc3cnsc23)ccc1C#N` [Example 88, 2-[[7-(4-Cyano-3-methylphenyl)benzo[d]isothiazol-6-yl]thio]-2-methylpropanoic acid], the remaining activity at 10 µM is 3.8%.

Take `CC(C)(Sc1ccc2ncsc2c1-c1ccc(C#N)cc1)C(=O)O` [Example 24, 2-[[7-(4-Cyanophenyl)benzo[d]thiazol-6-yl]thio]-2-methylpropanoic acid]: the remaining activity at 10 µM was determined as 7.4% and the half-inhibitory concentration (IC50) was 170 nM.

On to `CC(C)(Sc1ccc2cnsc2c1-c1ccc([N+](=O)[O-])cc1)C(=O)O` [Example 72, 2-Methyl-2-[[7-(4-nitrophenyl)benzo[d]isothiazol-6-yl]thio]propanoic acid], for which the remaining activity at 10 µM was under 0.1% and the IC50 was determined as 12 nM.

Take `CC(C)(Sc1c(-c2ccc(C#N)cc2)cnc2ccccc12)C(=O)O` [Example 45, 2-[[3-(4-Cyanophenyl)quinolin-4-yl]thio]-2-methylpropanoic acid]: the remaining activity at 10 µM was 36.5% and the IC50 was determined as 1580 nM.

In the case of `CC(C)(Sc1ccc2cnsc2c1-c1ccc(OC(F)(F)F)cc1)C(=O)O` [Example 80, 2-Methyl-2-[[7-[4-(trifluoromethoxy)phenyl]benzo[d]isothiazol-6-yl]thio]propanoic acid], the remaining activity at 10 µM came to 29.2%.

Consider `N#Cc1ccc(-c2c(SC3(C(=O)O)CCCC3)ccc3cnsc23)cc1` [Example 68, 1-[[7-(4-Cyanophenyl)benzo[d]isothiazol-6-yl]thio]cyclopentan-1-carboxylic acid], for which the remaining activity at 10 µM was under 0.1% and the IC50 is 26.2 nM.

Turning to `CC(C)(Sc1ccc2cnsc2c1-c1cccc(C#N)c1)C(=O)O` [Example 84, 2-[[7-(3-Cyanophenyl)benzo[d]isothiazol-6-yl]thio]-2-methylpropanoic acid], the remaining activity at 10 µM stood at 2.3% and the concentration for half-maximal inhibition (IC50) turned out to be 205 nM.

As to `CC(C)(Oc1ccc2ccccc2c1-c1cccnc1)C(=O)O` [Example 8, 2-Methyl-2-[[1-(pyridin-3-yl)naphthalen-2-yl]oxy]propanoic acid], the remaining activity at 10 µM was 61.3%.

Take `CC(C)(C)C(Sc1ccc2cnsc2c1-c1ccc(C#N)cc1)C(=O)O` (stereo not drawn) [Example 114, 2-[[7-(4-Cyanophenyl)benzo[d]isothiazol-6-yl]thio]-3,3-dimethylbutanoic acid]: the remaining activity at 10 µM amounted to 5.8% and the midpoint of inhibition, the IC50, lay at 474 nM.

As for `CC(C)(Sc1ccc2ncccc2c1-c1ccc(C#N)cc1)C(=O)O` [Example 15, 2-[[5-(4-Cyanophenyl)quinolin-6-yl]thio]-2-methylpropanoic acid], the remaining activity at 10 µM was determined as 50.1% and the IC50 worked out at 3440 nM.

Consider `N#Cc1ccc(-c2c(SC3(C(=O)O)CCCCC3)ccc3cnsc23)cc1` [Example 117, 1-[[7-(4-Cyanophenyl)benzo[d]isothazol-6-yl]thio]cyclohexan-1-carboxylic acid], for which the remaining activity at 10 µM came to 2.7% and the IC50 amounted to 296 nM.

`Cc1nsc2c(-c3ccc(C#N)cc3)c(SC3(C(=O)O)CCC3)ccc12` [Example 112, 1-[[7-(4-Cyanophenyl)-3-methylbenzo[d]isothiazol-6-yl]thio]cyclobutan-1-carb oxylic acid]: the remaining activity at 10 µM came to 13.8% and the IC50 stood at 2430 nM.

On to `N#Cc1ccc(-c2c(O/C=C/C(=O)O)ccc3ccccc23)cc1` [Example 6, (E)-3-[[1-(4-Cyanophenyl)naphthalen-2-yl]oxy]acrylic acid], for which the remaining activity at 10 µM is 5.4%.

As to `CC(C)C(Sc1ccc2cnsc2c1-c1ccc(C#N)cc1)C(=O)O` (stereo not drawn) [Example 70, 2-[[7-(4-Cyanophenyl)benzo[d]isothiazol-6-yl]thio]-3-methylbutanoic acid], the remaining activity at 10 µM was determined as 6.4%.

On to `CC(C)(Sc1ccc2cnsc2c1-c1ccc(C#N)c(F)c1)C(=O)O` [Example 90, 2-[[7-(4-Cyano-3-fluorophenyl)benzo[d]isothiazol-6-yl]thio]-2-methylpropanoic acid], for which the remaining activity at 10 µM is 3.6% and the IC50 is 161 nM.

Take `CC(C)(Sc1ccc2ccccc2c1-c1ccc(C#N)c2ccccc12)C(=O)O` [Example 4, 2-[(4′-Cyano[1,1′-binaphthalene]-2-yl)thio]-2-methylpropanoic acid]: the remaining activity at 10 µM was determined as 15.1% and inhibition was half-maximal at 790 nM (IC50).

With `CCC(CC)(Sc1ccc2cnsc2c1-c1ccc(C#N)cc1)C(=O)O` [Example 113, 2-[[7-(4-Cyanophenyl)benzo[d]isothiazol-6-yl]thio]-2-ethylbutanoic acid], the remaining activity at 10 µM is under 0.1% and inhibition was half-maximal at 21 nM (IC50).

`CC(C)(Oc1ccc2ncsc2c1-c1ccc(C#N)cc1)C(=O)O` [Example 19, 2-[[7-(4-Cyanophenyl)benzo[d]thiazol-6-yl]oxy]-2-methylpropanoic acid]: the remaining activity at 10 µM was 15.6%.

For the compound `N#Cc1ccc(-c2c(O/C=C\C(=O)O)ccc3ccccc23)cc1` [Example 7, (Z)-3-[[1-(4-Cyanophenyl)naphthalen-2-yl]oxy]acrylic acid], the remaining activity at 10 µM worked out at 29.5%.

Consider `CC(C)(Oc1ccc2ccccc2c1-c1ccc(C#N)c2ccccc12)C(=O)O` [Example 2, 2-[(4′-Cyano-(1,1′-binaphthalene)-2-yl]oxy]-2-methylpropanoic acid], for which the remaining activity at 10 µM was determined as 45.4% and the half-maximal inhibitory concentration (IC50) was 2060 nM.

Take `CC(C)(Sc1ccc2cnsc2c1-c1ccc(Cl)cc1)C(=O)O` [Example 82, 2-[[7-(4-Chlorophenyl)benzo[d]isothiazol-6-yl]thio]-2-methylpropanoic acid]: the remaining activity at 10 µM was under 0.1% and the IC50 is 106 nM.

Turning to `CC(C)(Sc1ccc2nc(C(F)(F)F)sc2c1-c1ccc(C#N)cc1)C(=O)O` [Example 60, 2-[[7-(4-Cyanophenyl)-2-(trifluoromethyl)benzo[d]thiazol-6-yl]thio]-2-methylpropanoic acid], the remaining activity at 10 µM worked out at 69.2%.

For `N#Cc1ccc(-c2c(SC3(C(=O)O)CCC3)ccc3cnsc23)cc1` [Example 66, 1-[[7-(4-Cyanophenyl)benzo[d]isothiazol-6-yl]thio]cyclobutan-1-carboxylic acid], the remaining activity at 10 µM is 1.8% and the midpoint of inhibition, the IC50, lay at 21.5 nM.

In the case of `Cc1ccc(-c2c(SC(C)(C)C(=O)O)ccc3cnsc23)cc1` [Example 74, 2-Methyl-2-[[7-(p-tolyl)benzo[d]isothiazol-6-yl]thio]propanoic acid], the remaining activity at 10 µM is 6.8%.

For the compound `Cc1nc2ccc(SC(C)(C)C(=O)O)c(-c3ccc(C#N)cc3)c2s1` [Example 62, 2-[[7-(4-Cyanophenyl)-2-methylbenzo[d]thiazol-6-yl]thio]-2-methylpropanoic acid], the remaining activity at 10 µM turned out to be 49%.

As for `O=C(O)/C=C/Oc1ccc2ccccc2c1-c1cccnc1` [Example 10, (E)-3-[[1-(Pyridin-3-yl)naphthalen-2-yl]oxy]acrylic acid], the remaining activity at 10 µM is 27.1%.

On to `Cc1cc(C#N)ccc1-c1c(SC(C)(C)C(=O)O)ccc2cnsc12` [Example 86, 2-[[7-(4-Cyano-2-methylphenyl)benzo[d]isothiazol-6-yl]thio]-2-methylpropanoic acid], for which the remaining activity at 10 µM is 12.1%.

`CC(C)(Sc1ccc2ncsc2c1-c1ccc(OC(F)(F)F)cc1)C(=O)O` [Example 64, 2-Methyl-2-[[7-[4-(trifluoromethoxy)phenyl]benzo[d]thiazol-6-yl]thio]propanoic acid]: the remaining activity at 10 µM is 30.1%.

Consider `CC(C)(Oc1ccc2ncoc2c1-c1ccc(C#N)cc1)C(=O)O` [Example 17, 2-[[7-(4-Cyanophenyl)benzo[d]oxazol-6-yl]oxy]-2-methylpropanoic acid], for which the remaining activity at 10 µM amounted to 59.3%.

For orientation: IC50 means the midpoint of a concentration-inhibition curve. Lower therefore signals inhibition by little substance.

The values are drawn from patent US10173990B2, “URAT1 inhibitor” (Nippon Chemiphar Co., Ltd., priority 2014, dated 2019).
